Measurements: patent publication US11925696B2, “Carbonic anhydrase IX targeting agents and methods” (priority 2016, dated 2024)
Read-outs that look alike come from different tables or passages of the source.

Experiments:
HT-29 cells [1] = experiment: Fluorescent/confocal microscopy of Hypoxyfluor and CA IX-Rhodamine on HT-29 cells; assay type: cell-based, human; conditions: 1 hour incubation, unbound conjugate washed off
Experimental: HT-29 cells (10^5) were seeded into chambered coverglass plates and allowed to grow to confluence over 48-72 hr. […] After incubation for 1 hour at 37° C., cells were rinsed three times with 1 mL of incubation solution to remove unbound fluorescence and 0.5 mL of fresh medium was added to the wells.
HT-29 cells that naturally express CA IX were used to determine cancer cell uptake and binding affinity of the newly synthesized conjugate. […] Fluorescence was quantitated as described above to determine binding affinity.

HT-29 cells [2] = experiment: Binding of Hypoxyfluor to HT-29 cells (cell associated fluorescence); parameters: species or system human
Experimental: After washing, the remaining fluorescence was quantitated by fluorescence spectroscopy. Error bars represent standard deviation.
HT-29 cells (10^5) were seeded into 24-well BD purecoat amine plates and allowed to grow to confluence over 48-72 hr. Spent medium was replaced with 0.5 mL of fresh medium containing 0.5% bovine serum albumin, and various concentrations of the dye conjugate alone or the dye conjugate plus 100-fold excess CA IX ligand were added. After incubation for 1 hour at 37° C., cells were rinsed with incubation solution (2×1.0 mL) to remove unbound fluorescence and dissolved in 0.5 mL of 1% aqueous sodium dodecyl sulfate. Cell associated fluorescence was then measured using an excitation of 745 nm and emission of 790 nm. All experiments were performed in triplicate. The dissociation constant (KD) was calculated from a plot of cell bound fluorescence (RFU) versus the concentration of fluorescent conjugate added using the program, Graphpad Prism, and assuming a noncooperative single site binding equilibrium.

HT-29 tumor xenografts = assay type: in vivo, mice
Experimental: Mice bearing HT-29 tumors were injected via tail vein with 4 nmol Hypoxyfluor alone or in combination with 100-fold excess CA IX inhibitor. Fluorescence images were acquired 4 hours post injection.
Tissues and organs were excised after whole animal imaging and the fluorescence images of the isolated tissues were acquired.
Mice bearing HT-29 tumors were injected via tail vein with the indicated concentrations of Hypoxyfluor and fluorescence images were acquired 4 hours post injection.
Using a 25-gauge needle, six-week-old female nu/nu mice were inoculated subcutaneously in their shoulders with HT-29 cells in RPMI1640 medium (5.0×10^6 cells per mouse). Tumor growth was measured in 2 perpendicular directions every 2 days with a caliper. Tumor volumes were calculated using the formula 0.5×L×W^2, where L is the measurement of the longest axis and W is the measurement of the axis perpendicular to L. Tumor bearing mice were treated via tail vein injection with different concentrations of Hypoxyfluor in the presence or absence of 100-fold CA IX ligand to block all unoccupied CA IX binding sites. Mice were imaged 4 hours post injection using a Caliper IVIS Lumina II Imaging station coupled to an ISOON5160 Andor Nikon camera equipped with Living Image Software Version 4.0. Image acquisition settings were as follows: lamp level, high; excitation, […]; emission, ICG; epi illumination; binning (M) 4; FOV, 12.5; f-stop, 4; acquisition time, 1 s.

HT-29 cells [3] = experiment: 99mTc conjugates binding to HT-29 cells (apparent KD, gamma counting); parameters: species or system human
Experimental: HT-29 cells (150,000 cells/well in 500 μL) were seeded into 24-well Falcon plates and allowed to form monolayers over 48 h. […] After incubating for 1 h at 37° C., cells were rinsed twice with 1 mL of medium and 1 mL of tris buffer. After dissolving in 0.5 mL of 0.25 M NaOH (aq), cells were transferred into individual γ-counter tubes and radioactivity was counted using a γ-counter (Packard, Packard Instrument Company). Apparent KD was calculated by plotting bound radioactivity versus the concentration of radiotracer using GraphPad Prism 4.

HT-29 xenografts = conditions: mouse, in vivo
Experimental: Additional mice were simultaneously injected with 100 nmol of unlabeled L2 or L3 ligand. Major tissues/organs were removed and the amount of radioactivity was determined. The percentage of injected dose/g of tissue was calculated and plotted. Error bars represent standard deviation.
Five-week-old male nu/nu mice were inoculated subcutaneously with HT-29 cells (5.0×10^6/mouse) on their shoulders. Growth of the tumors was measured in two perpendicular directions every 2 days using a caliper (body weights were monitored on the same schedule), and the volumes of the tumors were calculated as 0.5×L×W^2 (L=longest axis and W=axis perpendicular to L in millimeters). […] At various times, animals were sacrificed by CO2 asphyxiation. Images were acquired by shielding the kidneys via a Kodak Imaging Station (In-Vivo FX, Eastman Kodak Company) in combination with CCD camera and Kodak molecular imaging software (version 4.0). Radioimages: illumination source=radio isotope, acquisition time=3 min, f-stop=4, focal plane=5, FOV=160, binning=4. […] Radioactivity of preweighed tissues and ^99mTc-bound conjugates (10 nmol, 150 μCi) in saline (100 μL) was counted in a γ-counter. CPM values were decay corrected, and results were calculated as % injected dose (ID)/gram of wet tissue.

[4] = 4 nmol tail vein, 4 hours post injection

Compound | location of binding on cultured HT-29 cells (HT-29 cells [1]) | Kd (HT-29 cells [2]; 1 hour at 37° C., excitation 745 nm, emission 790 nm, triplicate, read-out: apparent dissociation constant) [µM] | binding after pre-incubation with 100-fold excess of the unconjugated ligand (HT-29 cells [2]; HT-29 cells) | whole animal fluorescence (HT-29 tumor xenografts; [4]) | whole animal fluorescence with 400 nmol CA IX ligand (HT-29 tumor xenografts; [4]) | whole body fluorescence, dose escalation (HT-29 tumor xenografts; 40 nmol/mouse) | whole body fluorescence, dose escalation (HT-29 tumor xenografts; low and intermediate doses (3 and 13 nmol)) | Kd (HT-29 cells [3]; 99mTc-bound conjugate, 1 h at 37° C., read-out: Binding Affinity (apparent KD)) [µM] | decrease of binding by addition of the PEG12-EC20 (HT-29 cells [3]; binding affinity of conjugate versus reported Ki of original ligand) [fold] | overall percentage of the injected dose retained in the tissues (HT-29 xenografts)
COC(=O)N(CCN(CC(=O)NCCOCCOCCOCCOCCOCCOCCOCCOCCOCCOCCOCCOCCC(=O)CCCc1ccc(OC2=C(/C=C/C3=[N+](CCCCS(=O)(=O)O)c4ccc(S(=O)(=O)O)cc4C3(C)C)CCC/C2=C\C=C2\N(CCCCS(=O)(=O)O)c3ccc(S(=O)(=O)O)cc3C2(C)C)cc1)CC(=O)Nc1ccc(S(N)(=O)=O)cc1)CC(=O)Nc1ccc(S(N)(=O)=O)cc1 [Hypoxyfluor] | binding was seen on both the cell surface and internal endosomes | 0.045 | binding was competed | predominately detected in the tumor | no fluorescent signal could be detected | nontumor associated fluorescence became apparent | fluorescence was restricted to the tumor |  |  | 
N[C@H](CNC(=O)CCOCCOCCOCCOCCOCCOCCOCCOCCOCCOCCOCCOCCNC(=O)CN(CCN(CC(=O)O)CC(=O)Nc1ccc(S(N)(=O)=O)cc1)CC(=O)Nc1ccc(S(N)(=O)=O)cc1)C(=O)N[C@@H](CC(=O)O)C(=O)NC[C@H](CS)C(=O)O [L2-PEG12-EC20] |  |  |  |  |  |  |  | 0.054 | ~7 | somewhat lower overall percentage of the injected dose being retained in the tissues
